Read-outs that look alike come from different tables or passages of the source.
Key:
[1] = tested on: amyloid β-protein deposition plaques; test: Micro-PET scan of brain uptake of ^11C-labelled compound in SAMP8 model mice and control mice; assay type: in vivo
Experimental: (§1) SAMP8 (senescence accelerated mouse prone 8) mice are the most common animal model of AD (Alzheimer's disease), in its brain there are a large number of amyloid deposition plaque. In this example, SAMP8 mice were used as model mice, and the normal mice were used as the control mice. Both the model mice and the control mice were 10 months old. The two mice were injected with 6-borono-2-(4-methylaminophenyl)benzothiazole containing ^11C labeling, and the Micro-PET scan is used to study whether 6-borono-2-(4-methylaminophenyl)benzothiazole and amyloid β-protein have specific binding properties. Model mice and control mice weighing 31.5±0.3 g were selected, 31.0±0.6 μCi of ^11C labelled 6-borono-2-(4-methylaminophenyl)benzothiazole were injected thereto, and Micro-PET of Model INVEON from Siemens were used for scan, where the scanning window was 350-650 KeV.
(§2) It is well known to those skilled in the art that the major cause of Alzheimer's disease is that the amyloid β-protein deposition plaques accumulate in the cerebral cortex and hippocampus of the brain. In this example, Micro-PET scanned and compared the brains of the model and control mice using PMOD software. And the absorption of radioactive 6-borono-2-(4-methylaminophenyl)benzothiazole in the cerebral cortex and hippocampus of SAMP8 model mice and control mice was determined, to further illustrate that the compound is capable of specifically binding to amyloid β-protein deposition plaques.

[2] = as above; assay type: in vivo; conditions: mouse, 31 μCi; for tissue uptake at 5 min: 5 min after injection; for tissue uptake at 15 min: 15 min after injection; for tissue uptake at 25 min: 25 min after injection; for tissue uptake at 35 min: 35 min after injection
Experimental: as §1, §2

[3] = cerebral cortex, other: injected (kind of injection not stated), SAMP8 model mice, read-out: Cerebral cortex uptake of radiopharmaceuticals, Model mice
[4] = cerebral cortex, other: injected (kind of injection not stated), normal control mice, read-out: Cerebral cortex uptake of radiopharmaceuticals, Control mice
[5] = hippocampus, other: injection (kind of injection not stated), SAMP8 model mice, read-out: hippocampus uptake of radiopharmaceuticals, Model mice
[6] = hippocampus, other: injection (kind of injection not stated), normal control mice, read-out: hippocampus uptake of radiopharmaceuticals, Control mice

Structure (SMILES): CNc1ccc(-c2nc3ccc(B(O)O)cc3s2)cc1 [6-borono-2-(4-methylaminophenyl)benzothiazole]
- Cerebral cortex uptake Ratio (model mice/control mice) ([1]; 5 min after injection): 1.9
- hippocampus uptake Ratio (model mice/control mice) ([1]; 5 min after injection): 1.9
- Cerebral cortex uptake Ratio (model mice/control mice) ([1]; 15 min after injection): 1.9
- hippocampus uptake Ratio (model mice/control mice) ([1]; 15 min after injection): 2.3
- Cerebral cortex uptake Ratio (model mice/control mice) ([1]; 25 min after injection): 2.4
- hippocampus uptake Ratio (model mice/control mice) ([1]; 25 min after injection): 3.2
- brain radiopharmaceutical absorption in PET image (FIG. 4), SAMP8 model mouse relative to control mice ([1]; 30 min after injection): accumulated a large amount of radiopharmaceuticals
- Cerebral cortex uptake Ratio (model mice/control mice) ([1]; 35 min after injection): 2.7
- hippocampus uptake Ratio (model mice/control mice) ([1]; 35 min after injection): 3.2
- tissue uptake at 5 min [2, 3]: 3.03 %ID/g
- tissue uptake at 15 min [2, 3]: 2.88 %ID/g
- tissue uptake at 25 min [2, 3]: 2.79 %ID/g
- tissue uptake at 35 min [2, 3]: 2.68 %ID/g
- tissue uptake at 5 min [2, 4]: 1.61 %ID/g
- tissue uptake at 15 min [2, 4]: 1.48 %ID/g
- tissue uptake at 25 min [2, 4]: 1.17 %ID/g
- tissue uptake at 35 min [2, 4]: 0.99 %ID/g
- tissue uptake at 5 min [2, 5]: 3.44 %ID/g
- tissue uptake at 15 min [2, 5]: 3.5 %ID/g
- tissue uptake at 25 min [2, 5]: 3.45 %ID/g
- tissue uptake at 35 min [2, 5]: 3.27 %ID/g
- tissue uptake at 5 min [2, 6]: 1.8 %ID/g
- tissue uptake at 15 min [2, 6]: 1.49 %ID/g
- tissue uptake at 25 min [2, 6]: 1.09 %ID/g
- tissue uptake at 35 min [2, 6]: 1.01 %ID/g

From patent US10709783B2, “Neutron capture therapy system for eliminating amyloid β-protein” (NEUBORON MEDTECH LTD., priority 2015, dated 2020)
